Patent publication US20230286968A1, “ARYLOXAZOLO SPIRAL RING DERIVATIVES FOR THE TREATMENT AND PROPHYLAXIS OF HEPATITIS B VIRUS INFECTION” (Hoffmann-La Roche Inc., priority 2020, published 2023)

Tests used:
HBeAg = experiment: PHH natural infection assay, HBeAg (alphalisa); type: cell-based, HBV; conditions: Hepatitis B virus, Hepatocyte, read-out: HBeAg IC50, HBV-infected primary human hepatocytes, supernatant, alphalisa
Summary of the method: (§1)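 Cryopreserved PHH plated 24 h, infected with HBV at 200 GE/cell plus 4% PEG8000 for 24 h, then sandwich-cultured 72 h with 0.25 mg/mL matrix gel. Compounds at varied concentrations applied twice at 72-h intervals. Supernatant HBsAg and HBeAg measured by AlphaLISA with specific antibodies.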

HBsAg = experiment: PHH natural infection assay, HBsAg (alphalisa); type: cell-based, HBV; conditions: Hepatitis B virus, Hepatocyte, read-out: HBsAg IC50, HBV-infected primary human hepatocytes, supernatant, alphalisa
Summary of the method: as §1

[1] = Cytotoxicity in PHH natural infection assay (Cell Counting Kit-8); type: cell-based; conditions: HBV-infected primary human hepatocytes, CCK8
Summary of the method: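 HBV-infected primary human hepatocytes (200 GE/cell, 4% PEG8000, 24 h), sandwich-cultured 72 h, then given compound-containing medium twice at 72 h intervals. Cytotoxicity read by CCK-8 at end of treatment.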

| Structure (SMILES) | IC50 (HBeAg) [µM] | IC50 (HBsAg) [µM] | CC50 at 144 h [1] [µM] |
| --- | --- | --- | --- |
| O=C(NC1CC2(C1)CC(c1nc3cc(Cl)ccc3o1)C2)N1CCCC1 (stereo not drawn) [Example 66, N-[6-(5-chloro-1,3-benzoxazol-2-yl)spiro[3.3]heptan-2-yl]pyrrolidine-1-carboxamide] | 1.97 | 2.5 | 92.1 |
| O=C(NC1CC2(C1)CC(c1nc3cc(Cl)ccc3o1)C2)N1CCC2(COC2)C1 (stereo not drawn) [Example 67, N-[6-(5-chloro-1,3-benzoxazol-2-yl)spiro[3.3]heptan-2-yl]-2-oxa-7-azaspiro[3.4]octane-7-carboxamide] | 3.76 | 3.95 | > 100 |
| O=C(NC1CC2(C1)CC(c1nc3cc(Cl)ccc3o1)C2)N1CCS(=O)(=O)CC1 (stereo not drawn) [Example 68, N-[6-(5-chloro-1,3-benzoxazol-2-yl)spiro[3.3]heptan-2-yl]-1,1-dioxo-1,4-thiazinane-4-carboxamide] | 4.12 | 6.65 | > 100 |
| CS(=O)(=O)N1CCC(C(=O)NC2CC3(C2)CC(c2nc4cc(Cl)ccc4o2)C3)C1 (stereo not drawn) [Example 69, N-[6-(5-chloro-1,3-benzoxazol-2-yl)spiro[3.3]heptan-2-yl]-1-methylsulfonyl-pyrrolidine-3-carboxamide] | 1.31 | 1.79 | > 100 |
| CCS(=O)(=O)N1CCC(C(=O)NC2CC3(C2)CC(c2nc4cc(Cl)ccc4o2)C3)C1 (stereo not drawn) [Example 70, N-[6-(5-chloro-1,3-benzoxazol-2-yl)spiro[3.3]heptan-2-yl]-1-ethylsulfonyl-pyrrolidine-3-carboxamide] | 3.62 | 5.42 | > 10 |
| CCCS(=O)(=O)N1CCC(C(=O)NC2CC3(C2)CC(c2nc4cc(Cl)ccc4o2)C3)C1 (stereo not drawn) [Example 71, N-[6-(5-chloro-1,3-benzoxazol-2-yl)spiro[3.3]heptan-2-yl]-1-propylsulfonyl-pyrrolidine-3-carboxamide] | 9.43 | 9.73 | > 10 |
| O=C(NC1CC2(C1)CC(c1nc3cc(Cl)ccc3o1)C2)C1CCN(S(=O)(=O)C2CC2)C1 (stereo not drawn) [Example 72, N-[6-(5-chloro-1,3-benzoxazol-2-yl)spiro[3.3]heptan-2-yl]-1-cyclopropylsulfonyl-pyrrolidine-3-carboxamide] | 4.43 | 9.56 | > 10 |
| CC(=O)N1CCC(C(=O)NC2CC3(C2)CC(c2nc4cc(Cl)ccc4o2)C3)C1 (stereo not drawn) [Example 73, 1-acetyl-N-[6-(5-chloro-1,3-benzoxazol-2-yl)spiro[3.3]heptan-2-yl]pyrrolidine-3-carboxamide] | 6.39 | 9.05 | > 10 |
| O=C(NC1CC2(C1)CC(c1nc3cc(Cl)ccc3o1)C2)C1CCN(C(=O)C2CC2)C1 (stereo not drawn) [Example 74, N-[6-(5-chloro-1,3-benzoxazol-2-yl)spiro[3.3]heptan-2-yl]-1-(cyclopropanecarbonyl)pyrrolidine-3-carboxamide] | 2.17 | 3.2 | > 10 |
| O=C(NC1CC2(C1)CC(c1nc3cc(Cl)ccc3o1)C2)C1CCN(C(=O)C2CCC2)C1 (stereo not drawn) [Example 75, N-[6-(5-chloro-1,3-benzoxazol-2-yl)spiro[3.3]heptan-2-yl]-1-(cyclobutanecarbonyl)pyrrolidine-3-carboxamide] | 8.96 | 9.58 | > 10 |
| Cc1ccc(S(=O)(=O)N2CCC(CC(=O)NC3CC4(C3)CC(c3nc5cc(Cl)ccc5o3)C4)C2)cc1 (stereo not drawn) [Example 76, N-[6-(5-chloro-1,3-benzoxazol-2-yl)spiro[3.3]heptan-2-yl]-2-[1-(p-tolylsulfonyl)pyrrolidin-3-yl]acetamide] | 4 | 2.89 | > 10 |
| CS(=O)(=O)N1CC(CC(=O)NC2CC3(C2)CC(c2nc4cc(Cl)ccc4o2)C3)C1 (stereo not drawn) [Example 77, N-[6-(5-chloro-1,3-benzoxazol-2-yl)spiro[3.3]heptan-2-yl]-2-(1-methylsulfonylazetidin-3-yl)acetamide] | 4.35 | 7.08 | > 10 |
| Cc1ccc(S(=O)(=O)N2CC(CC(=O)NC3CC4(C3)CC(c3nc5cc(Cl)ccc5o3)C4)C2)cc1 (stereo not drawn) [Example 78, N-[6-(5-chloro-1,3-benzoxazol-2-yl)spiro[3.3]heptan-2-yl]-2-[1-(p-tolylsulfonyl)azetidin-3-yl]acetamide] | 4.37 | 4.77 | > 10 |
| CS(=O)(=O)N1CCC(CC(=O)NC2CC3(C2)CC(c2nc4cc(Cl)ccc4o2)C3)CC1 (stereo not drawn) [Example 79, N-[6-(5-chloro-1,3-benzoxazol-2-yl)spiro[3.3]heptan-2-yl]-2-(1-methylsulfonyl-4-piperidyl)acetamide] | 3.6 | 6.72 | > 10 |
| Cc1ccc(S(=O)(=O)N2CCC(CC(=O)NC3CC4(C3)CC(c3nc5cc(Cl)ccc5o3)C4)CC2)cc1 (stereo not drawn) [Example 80, N-[6-(5-chloro-1,3-benzoxazol-2-yl)spiro[3.3]heptan-2-yl]-2-[1-(p-tolylsulfonyl)-4-piperidyl]acetamide] | 3.93 | 3.64 | > 10 |
| O=C(CCCS(=O)(=O)NC(=O)C1CCC1)NC1CC2(C1)CC(c1nc3cc(Cl)ccc3o1)C2 (stereo not drawn) [Example 81, N-[4-[[6-(5-chloro-1,3-benzoxazol-2-yl)spiro[3.3]heptan-2-yl]amino]-4-oxo-butyl]sulfonylcyclobutanecarboxamide] | 6.06 | 4.6 | > 10 |
| O=C(NC1CC2(C1)CC(c1nc3cc(Cl)ccc3o1)C2)c1ccnc(S(=O)(=O)C2CC2)c1 (stereo not drawn) [Example 83, N-[6-(5-chloro-1,3-benzoxazol-2-yl)spiro[3.3]heptan-2-yl]-2-cyclopropylsulfonyl-pyridine-4-carboxamide] | 0.05 | 0.14 | 90.5 |
| O=C(NC1CC2(C1)CC(c1nc3cc(Cl)cnc3o1)C2)c1ccnc(S(=O)(=O)C2CC2)c1 (stereo not drawn) [Example 85, N-[6-(6-chlorooxazolo[5,4-b]pyridin-2-yl)spiro[3.3]heptan-2-yl]-2-cyclopropylsulfonyl-pyridine-4-carboxamide] | 0.73 | 0.81 | > 10 |
| N=S(=O)(c1cc(C(=O)NC2CC3(C2)CC(c2nc4cc(Cl)ccc4o2)C3)ccn1)C1CC1 (stereo not drawn) [Example 86, N-[6-(5-chloro-1,3-benzoxazol-2-yl)spiro[3.3]heptan-2-yl]-2-(cyclopropylsulfonimidoyl)pyridine-4-carboxamide] | 0.42 | 0.64 | > 100 |
| CS(=O)(=O)c1cc(C(=O)NC2CC3(C2)CC(c2nc4cc(Cl)cnc4o2)C3)ccn1 (stereo not drawn) [Example 88, N-[6-(6-chlorooxazolo[5,4-b]pyridin-2-yl)spiro[3.3]heptan-2-yl]-2-methylsulfonyl-pyridine-4-carboxamide] | 1.65 | 2.42 | > 10 |
| CS(=N)(=O)c1cc(C(=O)NC2CC3(C2)CC(c2nc4cc(Cl)ccc4o2)C3)ccn1 (stereo not drawn) [Example 89, N-[6-(5-chloro-1,3-benzoxazol-2-yl)spiro[3.3]heptan-2-yl]-2-(methylsulfonimidoyl)pyridine-4-carboxamide] | 0.86 | 2.45 | > 100 |
| CS(=O)(=O)c1cc(C(=O)NC2CC3(C2)CC(c2nc4cc(Cl)ccc4o2)C3)c(Cl)cn1 (stereo not drawn) [Example 90, 5-Chloro-N-[6-(5-chloro-1,3-benzoxazol-2-yl)spiro[3.3]heptan-2-yl]-2-methylsulfonyl-pyridine-4-carboxamide] | 2.26 | 2.99 | > 10 |
| O=C(NC1CC2(C1)CC(c1nc3cc(Cl)ccc3o1)C2)c1ccnc(N2CCS(=O)(=O)CC2)c1 (stereo not drawn) [Example 91, N-[6-(5-chloro-1,3-benzoxazol-2-yl)spiro[3.3]heptan-2-yl]-2-(1,1-dioxo-1,4-thiazinan-4-yl)pyridine-4-carboxamide] | 0.95 | 1.1 | > 10 |
| CN(C(=O)c1ccnc(S(C)(=O)=O)c1)C1CC2(CC(c3nc4cc(Cl)ccc4o3)C2)C1 (stereo not drawn) [Example 92, N-[6-(5-chloro-1,3-benzoxazol-2-yl)spiro[3.3]heptan-2-yl]-N-methyl-2-methylsulfonyl-pyridine-4-carboxamide] | 2.02 | 3.05 | > 10 |
| CCS(=O)(=O)c1cc(C(=O)N(C)C2CC3(CC(c4nc5cc(Cl)ccc5o4)C3)C2)ccn1 (stereo not drawn) [Example 93, N-[6-(5-chloro-1,3-benzoxazol-2-yl)spiro[3.3]heptan-2-yl]-2-ethylsulfonyl-N-methyl-pyridine-4-carboxamide] | 2.21 | 3.08 | > 10 |
| N=C(NO)c1cc(C(=O)NC2CC3(C2)CC(c2nc4cc(Cl)ccc4o2)C3)ccn1 (stereo not drawn) [Example 95, N-[6-(5-chloro-1,3-benzoxazol-2-yl)spiro[3.3]heptan-2-yl]-2-(N-hydroxycarbamimidoyl)pyridine-4-carboxamide] | 6.25 | 8.25 | > 10 |
| N=C(N)c1cc(C(=O)NC2CC3(C2)CC(c2nc4cc(Cl)ccc4o2)C3)ccn1 (stereo not drawn) [Example 96, 2-Carbamimidoyl-N-[6-(5-chloro-1,3-benzoxazol-2-yl)spiro[3.3]heptan-2-yl]pyridine-4-carboxamide] | 5.65 | 7.6 | > 10 |
| CNc1cc(C(=O)NC2CC3(C2)CC(c2nc4cc(Cl)ccc4o2)C3)ccn1 (stereo not drawn) [Example 97, N-[6-(5-chloro-1,3-benzoxazol-2-yl)spiro[3.3]heptan-2-yl]-2-(methylamino)pyridine-4-carboxamide] | 5.97 | 7.05 | > 10 |
